The subject of the experiment is nude mice, A549 intrarenal xenograft, tumor weight change. In words: NCI In Vivo Anticancer Drug Screen. Data for tumor model A549 Human Adenocarcinoma of Lung with characteristics of Type II Alveolar Epithelial cells (intrarenal inoculation) in NU/NU BALB/C (nude) mice. The following applies: endpoint: mean tumor weight change, schedule: Q04DX003 (ip), higher = larger tumour. As to the method:
The antitumor activity of compounds was measured in mice bearing transplantable tumors. Survival or tumor size were measured and the results are expressed as the measurement made in the treated group (T) divided by the measurement made in the vehicle treated control group (C). The tumor model used in this assay is A549 Human Adenocarcinoma of Lung with characteristics of Type II Alveolar Epithelial cells (intrarenal inoculation) in NU/NU BALB/C (nude) mice

Where [1] appears, read: dose: 150.0 mg/kg/injection, vehicle: saline with Tween-80.
[2] abbreviates: dose: 300.0 mg/kg/injection, vehicle: saline with Tween-80.
The mark [3] stands for this setting: dose: 600.0 mg/kg/injection, vehicle: saline with Tween-80.
Setting [4] is: dose: 50.0 mg/kg/injection, vehicle: Klucel (hydroxypropylcellulose) (HPC).
The mark [5] stands for this setting: dose: 100.0 mg/kg/injection, vehicle: Klucel (hydroxypropylcellulose) (HPC).
[6] abbreviates: dose: 150.0 mg/kg/injection, vehicle: suspension in saline.
Where [7] appears, read: dose: 300.0 mg/kg/injection, vehicle: suspension in saline.
The mark [8] stands for this setting: dose: 600.0 mg/kg/injection, vehicle: suspension in saline.
Where [9] appears, read: dose: 75.0 mg/kg/injection, vehicle: saline with Tween-80.
[10] abbreviates: dose: 50.0 mg/kg/injection, vehicle: saline with Tween-80.
The mark [11] stands for this setting: dose: 100.0 mg/kg/injection, vehicle: saline with Tween-80.
The mark [12] stands for this setting: dose: 200.0 mg/kg/injection, vehicle: saline with Tween-80.
The mark [13] stands for this setting: dose: 50.0 mg/kg/injection, vehicle: water.

Values joined by “and” are separate entries in the source; they are usually repeats but may differ in a detail not shown here. Identical values can stand only once. Records with an inconclusive call do not appear.

With `CC(=O)NCCSSCCCCS(=O)O`, the T/C runs as follows: (dose: 75.0 mg/kg/injection, vehicle: saline) 111 % of control; (dose: 150.0 mg/kg/injection, vehicle: saline) 60 % of control; (dose: 300.0 mg/kg/injection, vehicle: saline) 39 % of control; (dose: 600.0 mg/kg/injection, vehicle: saline) 70 % of control.
Consider `O=C(Nc1cc(Cl)ccc1C(=O)O)c1cccc(C[n+]2ccccc2)c1`, for which the T/C by setting is: under setting [1], 161 % of control; under setting [2], 86 % of control; under setting [3], 20 % of control.
With `O=c1[nH]cnc2c1cnn2CN1CCOCC1`, the T/C by setting is: under setting [4], 166 % of control; under setting [5], 72 % of control.
As to `CN1COc2c(n(C)c(=O)[nH]c2=O)C1`, the T/C reads like this: under setting [6], 97 % of control; under setting [7], 46 % of control; under setting [8], 88 % of control; (dose: 1200.0 mg/kg/injection, vehicle: suspension in saline) 67 % of control.
On to `NC(=O)c1[nH]cnc1O`, for which, under setting [1], the T/C was 151 % of control.
Consider `COc1ccc(C[C@@H]2NC[C@@H](O)[C@@H]2OC(C)=O)cc1`, for which the T/C reads like this: (dose: 37.5 mg/kg/injection, vehicle: saline with Tween-80) 87 % of control; under setting [9], 48 % of control; under setting [1], 86 % of control.
As to `CN(C)c1ccc2c(Nc3ccc(NS(C)(=O)=O)cc3)c3ccc(N(C)C)cc3nc2c1`, the T/C is 116 % of control under setting [4]; 39 % of control under setting [5]; 41 % of control (dose: 200.0 mg/kg/injection, vehicle: Klucel (hydroxypropylcellulose) (HPC)).
With `Nc1ccc2ccc(NS(=O)(=O)N3CCCCC3)cc2c1`, the T/C reads like this: under setting [1], 94 % of control; under setting [2], 60 % of control; under setting [3], 32 % of control.
Turning to `c1ccc2c3c(c4c(c2c1)CN(C1CCCCC1)CO4)OCN(C1CCCCC1)C3`, the T/C (dose: 37.5 mg/kg/injection, vehicle: distilled water + Tween-80) was 65 % of control.
With `CC1/C=C/C=C/CC/C=C/C=C/C=C/C=C/C(OC2OC(C)C(O)C(N)C2O)CC2OC(CC(O)C(O)CCC(O)CC(O)CC(O)CC(=O)OC(C)C(C)C1O)CC(O)C2C(=O)O` (centres undefined), the T/C (dose: 25.0 mg/kg/injection, vehicle: saline with Tween-80) is 97 % of control; the T/C under setting [10] was 69 % of control; the T/C under setting [11] is 62 % of control.
On to `Nc1ccc2ccc(N)cc2c1`, for which the T/C reads like this: under setting [11], 87 % of control; under setting [12], 111 % of control; (dose: 400.0 mg/kg/injection, vehicle: saline with Tween-80) 55 % of control.
With `CS(=O)(=O)CS(=O)(=O)OCCF`, the T/C (dose: 6.25 mg/kg/injection, vehicle: saline) was 40 % of control; the T/C (dose: 12.5 mg/kg/injection, vehicle: saline) was 62 % of control; the T/C (dose: 25.0 mg/kg/injection, vehicle: saline) was 50 % of control; the T/C (dose: 50.0 mg/kg/injection, vehicle: saline) is 50 % of control.
Regarding `C=CCNC(=O)c1ccccc1SC(C)=O`, the T/C runs as follows: under setting [9], 104 % of control; under setting [1], 94 % of control; under setting [2], 96 % of control; (dose: 450.0 mg/kg/injection, vehicle: saline with Tween-80) 61 % of control.
As to `O=NNc1ccc(Cl)cn1`, the T/C (dose: 5.0 mg/kg/injection, vehicle: water) was 63 % of control; the T/C (dose: 6.25 mg/kg/injection, vehicle: water) is 113 % of control; the T/C (dose: 10.0 mg/kg/injection, vehicle: water) was 68 % of control; the T/C (dose: 12.5 mg/kg/injection, vehicle: water) was 62 % of control; the T/C (dose: 20.0 mg/kg/injection, vehicle: water) was 100 % of control; the T/C (dose: 25.0 mg/kg/injection, vehicle: water) was 61 % of control. In addition, the T/C is, setting by setting: (dose: 40.0 mg/kg/injection, vehicle: water) 57 % of control; under setting [13], 26 % of control.
Take `C=C(c1ccc(OC)c(OC)c1)c1nccc2cc(OC)c(OC)cc12`: the T/C reads like this: (dose: 150.0 mg/kg/injection, vehicle: Klucel (hydroxypropylcellulose) (HPC)) 50 % of control; (dose: 300.0 mg/kg/injection, vehicle: Klucel (hydroxypropylcellulose) (HPC)) 62 % of control.
Take `Cc1cccc(OCC(O)CN2CC2)c1` (centres undefined): the T/C runs as follows: under setting [10], 82 % of control; under setting [11], 46 % of control; under setting [12], 81 % of control.
As to `c1ccc2[nH]c(CN(CCN(Cc3nc4ccccc4[nH]3)Cc3nc4ccccc4[nH]3)Cc3nc4ccccc4[nH]3)nc2c1`, the T/C (dose: 6.25 mg/kg/injection, vehicle: DMSO) is 124 % of control; the T/C (dose: 12.5 mg/kg/injection, vehicle: DMSO) was 102 % of control; the T/C (dose: 25.0 mg/kg/injection, vehicle: DMSO) was 157 % of control.
On to `C=Cc1cc(OC)c2c(c1)c(=O)oc1c2cc(OC)c2c(O)ccc(C3OC(C)C(O)C(C)(O)C3O)c21` (centres undefined), for which the T/C (dose: 300.0 mg/kg/injection, vehicle: DMSO) was 32 % of control.
On to `N#CC(C#N)=NNc1ccc2cn[nH]c2c1`, for which the T/C runs as follows: under setting [4], -6 % of control; under setting [5], 117 % of control and 124 % of control.
As to `N[C@@H](Cc1c[nH]c2ccccc12)C(=O)Nc1nncs1`, the T/C by setting is: under setting [6], 74 % of control; under setting [7], 67 % of control; under setting [8], 70 % of control.
Consider `Cc1c(O)/c(=C\O)c2nc3c(=O)ccc(C(=O)NCCN(C)C)c3[nH]c2c1=O`, for which the T/C by setting is: under setting [13], 120 % of control; (dose: 100.0 mg/kg/injection, vehicle: water) 48 % of control; (dose: 120.0 mg/kg/injection, vehicle: water) 52 % of control and 75 % of control.
As for `CCN(CC)CC(C)(C)C(=O)/C=C/c1ccc(/C=C/C(=O)C(C)(C)CN(CC)CC)cc1`, the T/C (dose: 15.0 mg/kg/injection, vehicle: saline) was 84 % of control; the T/C (dose: 30.0 mg/kg/injection, vehicle: saline) is 73 % of control; the T/C (dose: 60.0 mg/kg/injection, vehicle: saline) is 82 % of control.
For the compound `Nc1nc2n[nH]nc2c(=O)[nH]1`, the T/C is 45 % of control (dose: 75.0 mg/kg/injection, vehicle: suspension in saline); 60 % of control under setting [6]; 22 % of control under setting [7].
As to `CC(=O)C[n+]1ccc(C)cc1Sc1ccccc1C`, the T/C runs as follows: under setting [10], 112 % of control; under setting [11], 44 % of control.
On to `NC(Cc1ccc(N(CCCl)Cc2ccccc2)cc1)C(=O)O` (centres undefined), for which the T/C reads like this: under setting [10], 74 % of control; under setting [11], 32 % of control; under setting [12], 38 % of control.
For `CN(Cc1cnc2nc(N)nc(N)c2n1)c1ccc(C(=O)N[C@@H](CCC(=O)O)C(=O)O)cc1`, where the note is “dose: 27.0 mg/kg/injection, vehicle: sodium bicarbonate”, the T/C is 100 % of control.
Regarding `c1cc2c(c(CC3CO3)c1CC1CO1)OCCOCCOCCOCCO2` (centres undefined), the T/C was 74 % of control (dose: 62.5 mg/kg/injection, vehicle: saline + alcohol); 98 % of control (dose: 125.0 mg/kg/injection, vehicle: saline + alcohol); 64 % of control (dose: 250.0 mg/kg/injection, vehicle: saline + alcohol); 75 % of control (dose: 375.0 mg/kg/injection, vehicle: saline + alcohol).
